Earlier results in patent publication US7220859B2, “Bicyclic heterocycles as cannabinoid receptor modulators” (Bristol-Myers Squibb Company, priority 2005, dated 2007).

Conditions: 16 week trial period

Compound: Cc1c(C(=O)NN2CCCCC2)nn(-c2ccc(Cl)cc2Cl)c1-c1ccc(Cl)cc1 [SR-141716]
- body weight in human subjects: dose-dependently reduced body weight
